Reference: patent publication US11643421B2, “Process for the preparation of tricyclic PI3K inhibitor compounds and methods for using the same for the treatment of cancer” (priority 2015, dated 2023)

Legend:
[1] = target: CamKIV (Homo sapiens, UniProt Q16566); assay: biochemical; conditions: read-out: % inhib
[2] = tested on: pAKT; assay: pAKT/total AKT in U87 MG/M xenograft tumors; assay type: in vivo, mice; conditions: 0.5, 3, 10, 18 mg/kg, 24 days continuous dosing, 1 hour and 4 hours post dose
Procedure: The effect of compound IIIat on the pharmacodynamics (PD) marker pAKT in the U87 MG/M human glioblastoma xenograft model after 24 days of continuous dosing at dosage rates of 0.5 mg/kg, 3 mg/kg, 10 mg/kg and 18 mg/kg was evaluated. Tumors were excised from animals 1 hour and 4 hours after the last administered dose on day 24 and processed for analysis of pAKT and total AKT. The results are reported in FIG. 4 as a ratio of pAKT to total AKT wherein indicated values are the means for groups of 3 animals and error bars indicate ±standard error of the mean. Levels of pAKT^Ser473 and total AKT were measured by electrochemiluminescence using Meso Scale Discovery according to manufacturer's instructions (Gaithersburg, Md.).

[3] = Brain binding, dialysis of brain homogenate; assay type: in vitro ADME; conditions: mouse brain homogenate, n=3, read-out: free fraction in brain tissues
Procedure: Following dialysis, tissues and buffer samples were analyzed as described for the plasma protein binding studies.

[4] = target: NEK7 (Homo sapiens, UniProt Q8TDX7); assay: biochemical; conditions: read-out: % inhib
Chain of NEK7 (Q8TDX7 whole entry): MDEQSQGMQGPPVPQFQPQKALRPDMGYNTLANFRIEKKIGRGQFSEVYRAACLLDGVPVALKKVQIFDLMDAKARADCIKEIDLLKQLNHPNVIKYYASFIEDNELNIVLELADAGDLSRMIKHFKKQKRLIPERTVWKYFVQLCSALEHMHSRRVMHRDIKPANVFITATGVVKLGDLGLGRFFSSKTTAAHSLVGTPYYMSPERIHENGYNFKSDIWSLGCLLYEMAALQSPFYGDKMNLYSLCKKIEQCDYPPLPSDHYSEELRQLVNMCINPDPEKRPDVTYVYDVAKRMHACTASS

[5] = target: PI4Ka (Homo sapiens, UniProt P42356); assay: biochemical; conditions: read-out: % inhib
Chain of PI4Ka (P42356 whole entry): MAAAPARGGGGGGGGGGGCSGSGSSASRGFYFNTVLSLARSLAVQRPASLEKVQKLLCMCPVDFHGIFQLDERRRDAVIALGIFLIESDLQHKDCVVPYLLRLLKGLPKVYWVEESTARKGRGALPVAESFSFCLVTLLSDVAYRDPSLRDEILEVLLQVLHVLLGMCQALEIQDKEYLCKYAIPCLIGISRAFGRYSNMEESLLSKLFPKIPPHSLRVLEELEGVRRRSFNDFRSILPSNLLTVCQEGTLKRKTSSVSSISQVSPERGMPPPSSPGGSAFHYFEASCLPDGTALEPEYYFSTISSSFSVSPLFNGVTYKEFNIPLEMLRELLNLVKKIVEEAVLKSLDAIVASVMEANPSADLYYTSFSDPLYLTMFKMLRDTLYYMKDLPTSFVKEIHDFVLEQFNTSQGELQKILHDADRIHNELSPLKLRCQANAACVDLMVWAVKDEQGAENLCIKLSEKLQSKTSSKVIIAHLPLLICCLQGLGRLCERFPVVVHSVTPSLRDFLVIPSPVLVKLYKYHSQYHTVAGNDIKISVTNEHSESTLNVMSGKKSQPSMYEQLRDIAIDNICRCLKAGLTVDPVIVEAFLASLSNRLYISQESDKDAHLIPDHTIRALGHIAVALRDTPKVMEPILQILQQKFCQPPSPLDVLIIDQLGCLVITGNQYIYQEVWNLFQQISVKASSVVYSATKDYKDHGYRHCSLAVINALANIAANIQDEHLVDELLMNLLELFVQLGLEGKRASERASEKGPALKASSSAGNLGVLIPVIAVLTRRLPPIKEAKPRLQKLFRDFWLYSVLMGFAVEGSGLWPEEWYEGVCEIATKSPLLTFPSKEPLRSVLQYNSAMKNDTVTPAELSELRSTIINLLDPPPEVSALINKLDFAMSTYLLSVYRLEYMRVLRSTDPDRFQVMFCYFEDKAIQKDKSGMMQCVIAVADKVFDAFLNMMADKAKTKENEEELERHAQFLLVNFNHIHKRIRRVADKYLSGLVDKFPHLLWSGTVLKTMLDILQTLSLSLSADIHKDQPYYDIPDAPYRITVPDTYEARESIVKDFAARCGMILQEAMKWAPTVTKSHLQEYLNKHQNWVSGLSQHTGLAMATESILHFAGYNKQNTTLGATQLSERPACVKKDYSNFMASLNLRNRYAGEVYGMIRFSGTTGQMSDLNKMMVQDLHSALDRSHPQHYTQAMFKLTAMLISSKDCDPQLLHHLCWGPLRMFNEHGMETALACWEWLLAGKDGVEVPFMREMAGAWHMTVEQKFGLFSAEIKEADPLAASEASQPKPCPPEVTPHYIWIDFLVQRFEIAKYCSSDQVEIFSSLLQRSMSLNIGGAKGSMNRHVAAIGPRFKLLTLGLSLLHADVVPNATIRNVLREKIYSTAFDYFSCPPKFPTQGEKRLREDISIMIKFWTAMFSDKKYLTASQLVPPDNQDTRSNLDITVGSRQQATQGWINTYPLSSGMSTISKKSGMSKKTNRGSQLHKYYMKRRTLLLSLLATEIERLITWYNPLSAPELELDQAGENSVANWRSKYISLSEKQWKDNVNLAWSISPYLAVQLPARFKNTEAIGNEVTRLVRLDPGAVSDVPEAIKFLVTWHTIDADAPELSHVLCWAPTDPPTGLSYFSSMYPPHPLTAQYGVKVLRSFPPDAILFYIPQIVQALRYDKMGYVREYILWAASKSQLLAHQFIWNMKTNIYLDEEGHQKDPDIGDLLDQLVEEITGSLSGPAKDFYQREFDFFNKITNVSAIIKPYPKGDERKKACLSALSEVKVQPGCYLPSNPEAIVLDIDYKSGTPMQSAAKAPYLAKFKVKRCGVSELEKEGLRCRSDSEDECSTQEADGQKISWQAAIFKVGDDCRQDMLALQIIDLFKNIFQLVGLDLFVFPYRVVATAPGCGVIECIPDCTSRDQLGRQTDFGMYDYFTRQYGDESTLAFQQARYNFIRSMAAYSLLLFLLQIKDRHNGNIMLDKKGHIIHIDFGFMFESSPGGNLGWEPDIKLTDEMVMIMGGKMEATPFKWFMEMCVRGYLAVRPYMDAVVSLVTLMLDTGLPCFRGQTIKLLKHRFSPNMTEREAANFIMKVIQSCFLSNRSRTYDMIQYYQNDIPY

[6] = target: p70S6K (Homo sapiens, UniProt P23443); assay: biochemical; conditions: read-out: % inhib
Chain of p70S6K (P23443 whole entry): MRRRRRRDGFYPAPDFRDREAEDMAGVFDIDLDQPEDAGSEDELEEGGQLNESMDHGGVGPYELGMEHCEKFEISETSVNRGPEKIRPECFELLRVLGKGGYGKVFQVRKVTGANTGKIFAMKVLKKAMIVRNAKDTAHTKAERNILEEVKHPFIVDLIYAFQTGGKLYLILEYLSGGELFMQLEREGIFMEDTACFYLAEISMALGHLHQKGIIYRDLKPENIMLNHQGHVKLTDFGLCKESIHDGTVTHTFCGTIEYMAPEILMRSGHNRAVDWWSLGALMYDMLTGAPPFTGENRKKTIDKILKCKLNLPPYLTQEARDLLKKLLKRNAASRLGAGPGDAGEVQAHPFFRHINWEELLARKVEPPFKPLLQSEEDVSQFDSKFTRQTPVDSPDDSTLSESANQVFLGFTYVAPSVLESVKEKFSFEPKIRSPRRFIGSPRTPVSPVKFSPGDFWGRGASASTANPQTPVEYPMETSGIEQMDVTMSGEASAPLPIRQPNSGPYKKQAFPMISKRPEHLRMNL

[7] = tested on: pAKT; assay: pAKT/tAKT in normal brain tissue; assay type: in vivo, female CD-1 mice
Procedure: The effect of compound IIIat on pAKT in normal brain tissue, expressed as the ratio of phosphorylated AKT (pAKT) to total AKT (tAKT) was evaluated. […] In the evaluation, female CD-1 mice were administered a single PO dose of the indicated compound. Brains and plasma were collected at the indicated time post-dose, from 3 animals at each time point. Individual brains were split in half for PD analysis and compound concentration measurement. The samples were stored at −70° C. and analyzed for total concentration. For PD analysis, cell extraction buffer (Invitrogen, Camarillo, Calif.) containing 10 mM Tris pH 7.4, 100 mM NaCl, 1 mM EDTA, 1 mM EGTA, 1 mM NaF, 20 mM Na4P2O7, 2 mM Na3VO4, 1% Triton X-100, 10% glycerol, 0.1% SDS, and 0.5% deoxycholate was supplemented with phosphatase, protease inhibitors (Sigma, St. Louis, Mo.) and 1 mM PMSF and added to frozen brain biopsies. […] Protein concentration was determined using BCA protein assay (Pierce, Rockford, Ill.). […] Licor Odyssey Infrared detection system (Licor, Lincoln, Nebr.) was used to assess and quantify protein expression. PI3K pathway markers were evaluated by immunoblotting using antibodies against pAkt^ser473 and total Akt (Invitrogen, Camarillo, Calif. and Cell Signaling, Danvers, Mass.). Inhibition of pAkt (%) was calculated by comparing pAkt signal with that measured in untreated mice.

[8] = target: Abl (Homo sapiens, UniProt P00519); assay: biochemical; conditions: read-out: % inhib
Chain of Abl (P00519 whole entry, species assumed): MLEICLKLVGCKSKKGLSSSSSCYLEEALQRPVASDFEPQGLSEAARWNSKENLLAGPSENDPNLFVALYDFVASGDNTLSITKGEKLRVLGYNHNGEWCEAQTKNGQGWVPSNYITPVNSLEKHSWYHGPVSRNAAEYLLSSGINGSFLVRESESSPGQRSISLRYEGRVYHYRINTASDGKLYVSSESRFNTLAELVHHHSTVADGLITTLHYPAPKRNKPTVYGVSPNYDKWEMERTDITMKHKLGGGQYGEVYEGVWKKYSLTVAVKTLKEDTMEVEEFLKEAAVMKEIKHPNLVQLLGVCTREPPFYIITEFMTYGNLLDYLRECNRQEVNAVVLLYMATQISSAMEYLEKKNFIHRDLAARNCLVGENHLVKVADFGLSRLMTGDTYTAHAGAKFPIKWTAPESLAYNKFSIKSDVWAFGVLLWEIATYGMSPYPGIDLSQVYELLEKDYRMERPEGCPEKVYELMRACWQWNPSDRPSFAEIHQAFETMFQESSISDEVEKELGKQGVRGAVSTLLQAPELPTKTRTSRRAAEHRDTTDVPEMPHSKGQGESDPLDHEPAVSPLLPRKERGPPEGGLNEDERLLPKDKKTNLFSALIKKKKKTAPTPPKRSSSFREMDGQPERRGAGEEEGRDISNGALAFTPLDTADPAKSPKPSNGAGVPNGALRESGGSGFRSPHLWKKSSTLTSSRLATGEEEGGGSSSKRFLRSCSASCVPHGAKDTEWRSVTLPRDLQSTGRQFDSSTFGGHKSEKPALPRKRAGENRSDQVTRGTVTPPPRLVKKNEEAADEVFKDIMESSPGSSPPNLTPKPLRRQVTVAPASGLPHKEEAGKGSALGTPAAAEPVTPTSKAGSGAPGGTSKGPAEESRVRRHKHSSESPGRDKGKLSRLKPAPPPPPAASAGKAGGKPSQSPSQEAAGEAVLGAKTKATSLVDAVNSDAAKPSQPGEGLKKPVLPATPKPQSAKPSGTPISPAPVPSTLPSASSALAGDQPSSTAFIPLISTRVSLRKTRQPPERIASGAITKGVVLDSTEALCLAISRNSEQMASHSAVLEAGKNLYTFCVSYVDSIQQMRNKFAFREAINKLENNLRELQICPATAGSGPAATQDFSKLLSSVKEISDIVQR

[9] = tested on: P-gp and BCRP; assay: Transport assays in cell monolayers, overall; assay type: in vitro ADME
Procedure: MDR1-MDCKI cells were licensed from the NCI (National Cancer Institute, Bethesda, Md.) and Bcrp1-MDCKII, BCRP-MDCKII and Mdr1a-LLC-PK1 cells were obtained from the Netherlands Cancer Institute (Amsterdam. The Netherlands). […] The compound was dissolved in transport buffer consisting of Hank's balanced salt solution (HBSS) with 10 mM HEPES (Invitrogen Corporation, Grand Island, N.Y.). Lucifer Yellow (Sigma-Aldrich, St. Louis, Mo.) was used as the paracellular and monolayer integrity marker. […] The efflux ratio (ER) was calculated (Papp, B-A/Papp, A-B).

[10] = In vivo pharmacokinetics IV and PO; set-up: species or system male cynomolgus monkeys; conditions: Cyno
Procedure: The hepatocyte stability of compound IIIat was evaluated across preclinical species. Certain in vivo pharmacokinetic parameters were also evaluated. […] Male Sprague-Dawley rats, female CD-1 mice, male cynomolgus monkeys and beagle dogs were dosed intravenously with 1 mg/kg of compound IIIat prepared in 60% PEG400/10% Ethanol. Compound IIIat was administered orally (PO) at the indicated dose in 0.5% methylcellulose with 0.2% Tween 80 (MCT).

[11] = tested on: GS2 intracranial tumors; assay: Efficacy in GS2 intracranial model; assay type: in vivo, mice; conditions: 15 mg/kg PO daily for 4 weeks, MRI, p<0.01
Text: These U87 and GS2 models are PTEN-deficient, with the GS2 cell line presenting a copy number loss at the PTEN locus (Gunther H S, et al.) with no detectable PTEN protein by western blot (Carlson […], Schroeder […]., “Establishment, maintenance and in vitro and in vivo applications of primary human glioblastoma multiforme (GBM) xenograft models for translational biology studies and drug discovery”, Curr Protoc Pharmacol. 2011; Chapter 14: Unit 14 16). The identity of the two cell lines was confirmed by STR profiling (DNA Diagnostics Center) using cells within 5 passages of those utilized for in vivo studies. […] The differences between treatment groups were evaluated using Student's t test in Prism (Prism 5, GraphPad). […] Body temperature was continuously monitored using a rectal probe and was maintained at 37° C. by a heated-air flow system regulated by in-house LabVIEW controller software. A T2-weighted fast spin echo, multi-slice (FSEMS) sequence was used to detect lesions by MRI. 12-20 axial 0.5-0.8 mm-thick slices were acquired with a 20×20 mm field of view (FOV), and 128×128 matrix, zero-filled to 256×256 mages. TR=3500-4000 ms, TE=9-10 ms, ETL=8, k-zero=4, NEX=8. Tumor volumes were calculated from the T2-weighted FSEMS images using an intensity threshold based region growing tool in MRVision software. […]

Chain of CamKIV (Q16566 whole entry): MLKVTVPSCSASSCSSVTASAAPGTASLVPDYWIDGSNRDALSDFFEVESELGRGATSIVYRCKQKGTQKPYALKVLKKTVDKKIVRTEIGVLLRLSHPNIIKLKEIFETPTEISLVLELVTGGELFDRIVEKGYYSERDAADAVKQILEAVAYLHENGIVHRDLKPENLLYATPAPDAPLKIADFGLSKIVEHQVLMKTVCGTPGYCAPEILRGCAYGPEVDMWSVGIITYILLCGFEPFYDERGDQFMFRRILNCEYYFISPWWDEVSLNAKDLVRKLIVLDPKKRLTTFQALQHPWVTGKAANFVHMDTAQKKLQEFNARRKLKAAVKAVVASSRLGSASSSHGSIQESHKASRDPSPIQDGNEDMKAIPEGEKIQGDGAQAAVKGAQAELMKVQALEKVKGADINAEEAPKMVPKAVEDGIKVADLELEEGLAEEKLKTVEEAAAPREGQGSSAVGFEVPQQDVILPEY

## CC1(C)OCCn2c1nc1c(N3CCOCC3)nc(-c3cnc(N)nc3)nc12 [GDC-0084, 5-(6,6-dimethyl-4-morpholino-8,9-dihydro-6H-[1,4]oxazino[3,4-e]purin-2-yl)pyrimidin-2-amine]
[1]
  inhibition at 1 µM: 0.2%
[2]
  inhibition of pAKT (pAKT/total AKT) in U87 tumors: Dose and concentration dependent inhibition of pAKT
[3]
  fraction unbound at 4 h, 5 µM: 0.067
[4]
  inhibition at 1 µM: -0.3%
[5]
  inhibition at 1 µM: 7%
[6]
  inhibition at 1 µM: 6%
[7]; 3 mg/kg or 10 mg/kg orally, 1 h post-dose
  pAKT in normal mouse brain tissue: inhibited
[7]; 3 mg/kg orally, 4 hours post-dose
  pAKT in normal mouse brain tissue: no longer resulted in inhibition of pAKT
[8]
  inhibition at 1 µM: 2%
[9]; efflux ratios in MDCK or LLC-PK1 transfected cells
  substrate of efflux transporters: poor substrate of the efflux transporters P-gp and BCRP
[9]; transfected MDCK and LLC-PK1 cells
  apparent permeability (Papp), in words: high and comparable to that of metoprolol
[10]; PO 2 mg/kg in MCT
  AUC: 0.11 μm·h
  Cmax: 0.03 μm
[10]; male, cynomolgus monkey, plasma, IV 1 mg/kg, read-out: In vivo Cl
  clearance: 46 mL/min/kg
[10]; male, cynomolgus monkey, plasma, IV 1 mg/kg, read-out: Vss
  Vd: 2.9 L/kg
[10]; male, cynomolgus monkey, plasma, PO 2 mg/kg in MCT
  bioavailability: 6%
[11]
  GS2 tumors smaller than control group: ≈ 40%
